Tests used:
Assay in all cases: relative viability (nuclei count vs DMSO), 5 days (fraction); higher = more cells survive
EHT 1864 + Phenformin = compound: C1COCCN1CC2=CC(=O)C(=CO2)OCCCCCSC3=C4C=CC(=CC4=NC=C3)C(F)(F)F [EHT 1864] + N=C(N)NC(=N)NCCc1ccccc1 [Phenformin] (partner 250 µM)
Outline: (§1)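 Lung cancer cell lines, seeded in 1536-well plates, were treated the following day by pin tool with a single drug or with five library-drug doses (not always all listed) in √10 steps on top of a fixed anchor-drug dose. Cells were fixed and nuclei stained in one step after 5 days, and nuclei were counted. Relative viability is the nuclei count for treated wells divided by that for vehicle wells, reported as medians of duplicate plates.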

EHT 1864 + Pictilisib = compound: C1COCCN1CC2=CC(=O)C(=CO2)OCCCCCSC3=C4C=CC(=CC4=NC=C3)C(F)(F)F [EHT 1864] + CS(=O)(=O)N1CCN(Cc2cc3nc(-c4cccc5[nH]ncc45)nc(N4CCOCC4)c3s2)CC1 [Pictilisib] (partner 1 µM)
Outline: as §1

EHT 1864 + Alpelisib = compound: C1COCCN1CC2=CC(=O)C(=CO2)OCCCCCSC3=C4C=CC(=CC4=NC=C3)C(F)(F)F [EHT 1864] + Cc1nc(NC(=O)N2CCC[C@H]2C(N)=O)sc1-c1ccnc(C(C)(C)C(F)(F)F)c1 [Alpelisib] (partner 2 µM)
Outline: as §1

EHT 1864 + AZD7762 = compound: C1COCCN1CC2=CC(=O)C(=CO2)OCCCCCSC3=C4C=CC(=CC4=NC=C3)C(F)(F)F [EHT 1864] + NC(=O)Nc1cc(-c2cccc(F)c2)sc1C(=O)N[C@H]1CCCNC1 [AZD7762] (partner 0.2 µM)
Outline: as §1

Cell Line	relative viability (EHT 1864 + Phenformin; first compound 0.04 µM)	relative viability (EHT 1864 + Phenformin; first compound 0.1265 µM)	relative viability (EHT 1864 + Phenformin; first compound 0.4 µM)	relative viability (EHT 1864 + Phenformin; first compound 1.265 µM)	relative viability (EHT 1864 + Phenformin; first compound 4 µM)	relative viability (EHT 1864 + Pictilisib; first compound 0.04 µM)	relative viability (EHT 1864 + Pictilisib; first compound 0.4 µM)	relative viability (EHT 1864 + Pictilisib; first compound 1.265 µM)	relative viability (EHT 1864 + Pictilisib; first compound 4 µM)	relative viability (EHT 1864 + Alpelisib; first compound 0.04 µM)	relative viability (EHT 1864 + Alpelisib; first compound 0.4 µM)	relative viability (EHT 1864 + Alpelisib; first compound 1.265 µM)	relative viability (EHT 1864 + Alpelisib; first compound 4 µM)	relative viability (EHT 1864 + AZD7762; first compound 0.04 µM)	relative viability (EHT 1864 + AZD7762; first compound 0.1265 µM)	relative viability (EHT 1864 + AZD7762; first compound 0.4 µM)	relative viability (EHT 1864 + AZD7762; first compound 1.265 µM)	relative viability (EHT 1864 + AZD7762; first compound 4 µM)	relative viability (EHT 1864 + Pictilisib; first compound 0.1265 µM)	relative viability (EHT 1864 + Alpelisib; first compound 0.1265 µM)
NCI-H650	0.403	0.455	0.48	0.447	0.459	0.915	0.941	0.895	0.847	1.05	1.23	1.02	1.09	0.994	0.612	1.13	1.1	1.06		
NCI-H727	0.551	0.574	0.481	0.461	0.597	0.482	0.419		0.458	0.623	0.524		0.567	0.579	0.693	0.587	0.555	0.794	0.353	0.593
NCI-H838	0.558	0.513	0.638	0.697	0.588	0.501	0.548	0.435	0.428	0.969	0.988	0.921	0.827	0.959	0.895	0.886	0.872	0.959	0.353	0.881
NCI-H1355	0.471	0.425	0.447	0.446	0.433	0.423	0.412	0.445	0.475	0.766	0.699	0.856	0.89	0.876	0.65	0.725	0.688	0.68	0.385	0.624
NCI-H1395	0.518	0.422	0.45	0.474	0.431	0.66	0.58	0.59	0.588	1.54	1.01	0.967	1.38	0.394	0.37	0.389	0.437	0.436	0.557	0.942
NCI-H1437	0.34	0.262	0.298	0.311	0.335	0.438	0.418	0.492	0.397	0.988	0.899	0.805	0.652	1.1	1.1	1.09	1.02	0.889	0.47	1.04
NCI-H1651	0.376	0.358	0.333	0.345	0.334	0.537	0.555	0.563	0.492	0.917	0.949	0.967	0.878	0.396	0.439	0.469	0.482	0.556	0.562	0.876
NCI-H1666	0.614	0.504	0.584	0.562	0.627	0.533	0.501	0.545	0.575	0.898	0.978	0.98	0.966	0.826	0.747	0.915	0.997	1.1	0.442	1.12
NCI-H1734	0.539		0.397	0.433	0.432	0.485	0.455	0.452	0.418	0.741	0.627	0.609	0.64	0.65	0.427	0.537	0.611	0.618	0.455	0.629
NCI-H1755	0.607	0.564	0.594	0.612	0.629	0.495	0.403	0.436	0.428	0.897	0.861	0.945	0.877	0.438	0.424	0.405	0.402	0.456	0.376	0.844
NCI-H1792	0.256			0.304	0.368	0.259	0.27	0.288	0.348	0.664	0.627	0.72	0.792	0.746		0.733	0.592	0.738	0.302	0.584
NCI-H1793	0.301		0.383		0.392		0.366	0.3	0.311		0.815	0.847	0.7	0.609	0.458	0.496	0.193	0.298	0.465	0.635
NCI-H1915	0.396		0.366	0.382	0.374	1.02	0.963	0.998	0.905	1.12	0.988	1.05	1.05	0.728		0.681	0.711	0.719		
NCI-H1944	0.233		0.224	0.191	0.199	0.355	0.344	0.359	0.312	0.828	0.805	0.803	0.984	0.5		0.511	0.563	0.665		
NCI-H1975	0.406	0.42	0.407		0.396	0.304	0.278	0.269	0.301	0.628	0.6	0.618	0.572	0.733	0.717	0.676	0.642	0.68	0.305	0.614
NCI-H1993	0.537		0.488	0.534	0.508	0.88	0.788	0.866	0.894	0.733	0.568	0.679	0.732	0.71		0.827	0.775	0.83	1.04	0.658
NCI-H2085	0.731		0.832	0.808	0.732	0.555	0.47	0.448	0.428	0.998	0.9	0.982	0.869	0.962	0.645	0.973	0.987	0.942	0.524	0.875

— the supplement of paper PMC10307832
